Source: the NIST ThermoML archive (doi:10.1021/acs.jced.7b00106)
Numbers after ± are expanded uncertainties.

Settings: Hot wire method

With `FC(F)(F)/C=C/Cl` [(E)-1-chloro-3,3,3-trifluoroprop-1-ene] as the compound, how does the thermal conductivity (402.34 K, 675 kPa, Fluid (supercritical or subcritical phases)) read?
Its thermal conductivity is 0.01919 ± 0.0011 W/m/K.

And the thermal conductivity (402.35 K, 18638 kPa, Liquid)?
Its thermal conductivity is 0.06815 ± 0.00078 W/m/K.

And the thermal conductivity (402.35 K, 18644 kPa, Liquid)?
Its thermal conductivity is 0.06814 ± 0.00084 W/m/K.

What about the thermal conductivity (402.36 K, 4694 kPa, Liquid) of the same compound?
Its thermal conductivity is 0.05768 ± 0.00067 W/m/K.

What about the thermal conductivity (402.36 K, 4699 kPa, Liquid) of the same compound?
Its thermal conductivity is 0.05769 ± 0.00069 W/m/K.

What about the thermal conductivity (402.37 K, 9102 kPa, Liquid) of the same compound?
Its thermal conductivity is 0.06154 ± 0.0014 W/m/K.

What about the thermal conductivity (402.37 K, 9105 kPa, Liquid) of the same compound?
The thermal conductivity was 0.06157 ± 0.0017 W/m/K.

And the thermal conductivity (402.37 K, 33596 kPa, Liquid)?
The thermal conductivity was 0.07616 ± 0.0024 W/m/K.

And the thermal conductivity (402.38 K, 1202 kPa, Fluid (supercritical or subcritical phases))?
Its thermal conductivity is 0.01949 ± 0.002 W/m/K.

What about the thermal conductivity (402.38 K, 1203 kPa, Fluid (supercritical or subcritical phases)) of the same compound?
Its thermal conductivity is 0.0195 ± 0.002 W/m/K.

What about the thermal conductivity (402.38 K, 1623 kPa, Fluid (supercritical or subcritical phases)) of the same compound?
Its thermal conductivity is 0.02057 ± 0.0047 W/m/K.

And the thermal conductivity (402.38 K, 1624 kPa, Fluid (supercritical or subcritical phases))?
Its thermal conductivity is 0.02063 ± 0.0063 W/m/K.

What about the thermal conductivity (402.38 K, 33572 kPa, Liquid) of the same compound?
Its thermal conductivity is 0.0761 ± 0.0045 W/m/K.

And the thermal conductivity (402.41 K, 3571 kPa, Liquid)?
Its thermal conductivity is 0.05649 ± 0.00075 W/m/K.

And the thermal conductivity (402.41 K, 3575 kPa, Liquid)?
Its thermal conductivity is 0.05649 ± 0.00073 W/m/K.

What about the thermal conductivity (402.42 K, 1105 kPa, Fluid (supercritical or subcritical phases)) of the same compound?
The thermal conductivity was 0.01939 ± 0.0019 W/m/K.

And the thermal conductivity (402.43 K, 1105 kPa, Fluid (supercritical or subcritical phases))?
The thermal conductivity was 0.01943 ± 0.0019 W/m/K.

And the thermal conductivity (402.43 K, 7089 kPa, Liquid)?
The thermal conductivity was 0.05988 ± 0.00071 W/m/K.

And the thermal conductivity (402.44 K, 2633 kPa, Liquid)?
Its thermal conductivity is 0.05536 ± 0.00081 W/m/K.

What about the thermal conductivity (402.44 K, 2641 kPa, Liquid) of the same compound?
The thermal conductivity was 0.05542 ± 0.00063 W/m/K.

What about the thermal conductivity (402.44 K, 7097 kPa, Liquid) of the same compound?
Its thermal conductivity is 0.05991 ± 0.0014 W/m/K.

And the thermal conductivity (402.44 K, 15789 kPa, Liquid)?
Its thermal conductivity is 0.06632 ± 0.0013 W/m/K.

And the thermal conductivity (402.44 K, 15790 kPa, Liquid)?
The thermal conductivity was 0.06635 ± 0.001 W/m/K.

And the thermal conductivity (402.44 K, 24987 kPa, Liquid)?
Its thermal conductivity is 0.07171 ± 0.002 W/m/K.

What about the thermal conductivity (402.44 K, 24992 kPa, Liquid) of the same compound?
The thermal conductivity was 0.07169 ± 0.0019 W/m/K.

And the thermal conductivity (402.46 K, 1000 kPa, Fluid (supercritical or subcritical phases))?
The thermal conductivity was 0.01927 ± 0.0022 W/m/K.

And the thermal conductivity (402.47 K, 1001 kPa, Fluid (supercritical or subcritical phases))?
Its thermal conductivity is 0.01932 ± 0.0022 W/m/K.

What about the thermal conductivity (402.47 K, 1515 kPa, Fluid (supercritical or subcritical phases)) of the same compound?
The thermal conductivity was 0.02021 ± 0.0025 W/m/K.

And the thermal conductivity (402.47 K, 1844 kPa, Liquid)?
Its thermal conductivity is 0.0544 ± 0.0013 W/m/K.

What about the thermal conductivity (402.47 K, 1854 kPa, Liquid) of the same compound?
Its thermal conductivity is 0.05447 ± 0.0009 W/m/K.

And the thermal conductivity (402.48 K, 1515 kPa, Fluid (supercritical or subcritical phases))?
The thermal conductivity was 0.02026 ± 0.004 W/m/K.

And the thermal conductivity (402.5 K, 848 kPa, Fluid (supercritical or subcritical phases))?
Its thermal conductivity is 0.01923 ± 0.0013 W/m/K.

And the thermal conductivity (402.5 K, 13367 kPa, Liquid)?
Its thermal conductivity is 0.06472 ± 0.0013 W/m/K.

And the thermal conductivity (402.5 K, 13371 kPa, Liquid)?
Its thermal conductivity is 0.0647 ± 0.0013 W/m/K.

And the thermal conductivity (402.51 K, 846 kPa, Fluid (supercritical or subcritical phases))?
Its thermal conductivity is 0.01926 ± 0.0021 W/m/K.

And the thermal conductivity (402.52 K, 1406 kPa, Fluid (supercritical or subcritical phases))?
Its thermal conductivity is 0.01993 ± 0.003 W/m/K.

And the thermal conductivity (402.52 K, 1407 kPa, Fluid (supercritical or subcritical phases))?
Its thermal conductivity is 0.01994 ± 0.0031 W/m/K.

What about the thermal conductivity (402.53 K, 21658 kPa, Liquid) of the same compound?
Its thermal conductivity is 0.06987 ± 0.00078 W/m/K.

And the thermal conductivity (402.54 K, 21643 kPa, Liquid)?
Its thermal conductivity is 0.06986 ± 0.00079 W/m/K.

And the thermal conductivity (402.56 K, 28722 kPa, Liquid)?
Its thermal conductivity is 0.07362 ± 0.0014 W/m/K.

What about the thermal conductivity (402.57 K, 5983 kPa, Liquid) of the same compound?
The thermal conductivity was 0.05888 ± 0.0011 W/m/K.

And the thermal conductivity (402.57 K, 5985 kPa, Liquid)?
Its thermal conductivity is 0.05888 ± 0.00088 W/m/K.

What about the thermal conductivity (402.57 K, 11101 kPa, Liquid) of the same compound?
The thermal conductivity was 0.06313 ± 0.00071 W/m/K.

What about the thermal conductivity (402.57 K, 28741 kPa, Liquid) of the same compound?
The thermal conductivity was 0.07367 ± 0.0011 W/m/K.

And the thermal conductivity (402.58 K, 1306 kPa, Fluid (supercritical or subcritical phases))?
Its thermal conductivity is 0.01976 ± 0.0043 W/m/K.

What about the thermal conductivity (402.58 K, 1307 kPa, Fluid (supercritical or subcritical phases)) of the same compound?
Its thermal conductivity is 0.01973 ± 0.004 W/m/K.

And the thermal conductivity (402.58 K, 11088 kPa, Liquid)?
The thermal conductivity was 0.06313 ± 0.00077 W/m/K.

And the thermal conductivity (402.6 K, 18623 kPa, Liquid)?
Its thermal conductivity is 0.06809 ± 0.0017 W/m/K.

And the thermal conductivity (402.61 K, 676 kPa, Fluid (supercritical or subcritical phases))?
Its thermal conductivity is 0.01925 ± 0.0019 W/m/K.

And the thermal conductivity (402.61 K, 4688 kPa, Liquid)?
The thermal conductivity was 0.05758 ± 0.00095 W/m/K.

And the thermal conductivity (402.61 K, 18624 kPa, Liquid)?
The thermal conductivity was 0.06809 ± 0.0017 W/m/K.

What about the thermal conductivity (402.61 K, 33585 kPa, Liquid) of the same compound?
The thermal conductivity was 0.07607 ± 0.0019 W/m/K.

And the thermal conductivity (402.62 K, 4693 kPa, Liquid)?
The thermal conductivity was 0.05763 ± 0.00095 W/m/K.

What about the thermal conductivity (402.62 K, 33568 kPa, Liquid) of the same compound?
The thermal conductivity was 0.07592 ± 0.0013 W/m/K.

What about the thermal conductivity (402.63 K, 1203 kPa, Fluid (supercritical or subcritical phases)) of the same compound?
Its thermal conductivity is 0.01956 ± 0.0032 W/m/K.

What about the thermal conductivity (402.63 K, 9088 kPa, Liquid) of the same compound?
The thermal conductivity was 0.06152 ± 0.0012 W/m/K.

What about the thermal conductivity (402.63 K, 9104 kPa, Liquid) of the same compound?
The thermal conductivity was 0.06148 ± 0.0012 W/m/K.

And the thermal conductivity (402.65 K, 1203 kPa, Fluid (supercritical or subcritical phases))?
Its thermal conductivity is 0.01959 ± 0.0033 W/m/K.

What about the thermal conductivity (402.66 K, 3574 kPa, Liquid) of the same compound?
Its thermal conductivity is 0.05645 ± 0.002 W/m/K.

What about the thermal conductivity (402.66 K, 3575 kPa, Liquid) of the same compound?
Its thermal conductivity is 0.05645 ± 0.002 W/m/K.

What about the thermal conductivity (402.69 K, 1104 kPa, Fluid (supercritical or subcritical phases)) of the same compound?
The thermal conductivity was 0.01945 ± 0.0028 W/m/K.

And the thermal conductivity (402.69 K, 1106 kPa, Fluid (supercritical or subcritical phases))?
Its thermal conductivity is 0.01948 ± 0.003 W/m/K.

And the thermal conductivity (402.69 K, 7089 kPa, Liquid)?
Its thermal conductivity is 0.05985 ± 0.00084 W/m/K.

What about the thermal conductivity (402.69 K, 15783 kPa, Liquid) of the same compound?
The thermal conductivity was 0.06633 ± 0.00075 W/m/K.

And the thermal conductivity (402.69 K, 15792 kPa, Liquid)?
Its thermal conductivity is 0.06633 ± 0.00091 W/m/K.

And the thermal conductivity (402.69 K, 24993 kPa, Liquid)?
Its thermal conductivity is 0.07169 ± 0.00081 W/m/K.

And the thermal conductivity (402.7 K, 2638 kPa, Liquid)?
The thermal conductivity was 0.0554 ± 0.00063 W/m/K.

What about the thermal conductivity (402.7 K, 7091 kPa, Liquid) of the same compound?
The thermal conductivity was 0.0599 ± 0.001 W/m/K.

And the thermal conductivity (402.7 K, 25001 kPa, Liquid)?
The thermal conductivity was 0.07172 ± 0.0011 W/m/K.

And the thermal conductivity (402.71 K, 2639 kPa, Liquid)?
Its thermal conductivity is 0.05542 ± 0.0015 W/m/K.

What about the thermal conductivity (402.74 K, 1850 kPa, Liquid) of the same compound?
Its thermal conductivity is 0.05446 ± 0.0018 W/m/K.

What about the thermal conductivity (402.75 K, 1000 kPa, Fluid (supercritical or subcritical phases)) of the same compound?
Its thermal conductivity is 0.01939 ± 0.0038 W/m/K.
